Results on 33 molecules are retold here after patent US11186564B2, “Dual NAV1.2/5HT2a inhibitors for treating CNS disorders” (Sunovion Pharmaceuticals Inc., priority 2016, dated 2021).

Assay [1] has as its target human sodium channel NaV1.2 (Homo sapiens, UniProt Q99250). The assay can be described thus: NaV1.2 inhibition, automated patch-clamp (Q-Patch HTX), slow inactivated state (state C). It counts as cell-based. The following applies: hNaV1.2 CHO cells, slow inactivated state; for inhibition at 1 µM: 1 μM compound, read-out: NaV1.2 (% inh), 1 μM; for IC50: read-out: NaV1.2 IC50; for inhibition at 10 µM: 10 μM compound, read-out: NaV1.2 (% inh), 10 μM. In outline:
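CHO K-1 cells stably expressing human NaV1.2, whole-cell automated patch clamp, holding −100 mV; slow-inactivated state (state C) read at a 5 ms step to 0 mV after 10 s at −50 mV and 15 ms at −90 mV. Percent inhibition vs vehicle; IC50 by nonlinear least-squares fit.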

Assay [2] deals with T1, recombinant human serotonin receptor 5-HT2A (Homo sapiens, UniProt P28223).
T1 construct: expressed in transfected cells; method B: loaded with Ca2+ dye
T1 sequence (P28223 whole entry): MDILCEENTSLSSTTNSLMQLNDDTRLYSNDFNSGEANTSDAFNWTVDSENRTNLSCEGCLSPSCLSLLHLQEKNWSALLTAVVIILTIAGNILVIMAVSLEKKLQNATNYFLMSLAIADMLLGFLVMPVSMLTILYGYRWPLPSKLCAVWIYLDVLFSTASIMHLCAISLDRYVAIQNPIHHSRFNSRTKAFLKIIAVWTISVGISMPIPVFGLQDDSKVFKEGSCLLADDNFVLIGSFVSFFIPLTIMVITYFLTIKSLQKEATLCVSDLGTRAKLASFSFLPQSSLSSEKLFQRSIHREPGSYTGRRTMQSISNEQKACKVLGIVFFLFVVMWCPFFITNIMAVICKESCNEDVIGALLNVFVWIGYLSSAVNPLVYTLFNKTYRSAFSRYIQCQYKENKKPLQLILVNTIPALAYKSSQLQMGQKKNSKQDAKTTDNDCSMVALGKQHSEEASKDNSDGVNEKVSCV
Description: 5-HT2A antagonist Ca2+ assay in CHO-K1 cells (method A aequorin luminescence / method B FLIPR fluorescence). The following applies: antagonist mode vs EC80 of reference agonist, method A or B, read-out: 5HT2A IC50. It counts as cell-based. The method, boiled down: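 Method A: CHO-K1 cells co-expressing human 5-HT2A and mitochondrial apoaequorin were given reference agonist at EC80 15 min after compound, with luminescence read. Method B: dye-loaded 5-HT2A CHO-K1 cells were pretreated with compound, then given serotonin at EC80, with FLIPR fluorescence read. IC50s came from nonlinear fits of percent inhibition.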

human sodium channel NaV1.2, sequence (Q99250 whole entry): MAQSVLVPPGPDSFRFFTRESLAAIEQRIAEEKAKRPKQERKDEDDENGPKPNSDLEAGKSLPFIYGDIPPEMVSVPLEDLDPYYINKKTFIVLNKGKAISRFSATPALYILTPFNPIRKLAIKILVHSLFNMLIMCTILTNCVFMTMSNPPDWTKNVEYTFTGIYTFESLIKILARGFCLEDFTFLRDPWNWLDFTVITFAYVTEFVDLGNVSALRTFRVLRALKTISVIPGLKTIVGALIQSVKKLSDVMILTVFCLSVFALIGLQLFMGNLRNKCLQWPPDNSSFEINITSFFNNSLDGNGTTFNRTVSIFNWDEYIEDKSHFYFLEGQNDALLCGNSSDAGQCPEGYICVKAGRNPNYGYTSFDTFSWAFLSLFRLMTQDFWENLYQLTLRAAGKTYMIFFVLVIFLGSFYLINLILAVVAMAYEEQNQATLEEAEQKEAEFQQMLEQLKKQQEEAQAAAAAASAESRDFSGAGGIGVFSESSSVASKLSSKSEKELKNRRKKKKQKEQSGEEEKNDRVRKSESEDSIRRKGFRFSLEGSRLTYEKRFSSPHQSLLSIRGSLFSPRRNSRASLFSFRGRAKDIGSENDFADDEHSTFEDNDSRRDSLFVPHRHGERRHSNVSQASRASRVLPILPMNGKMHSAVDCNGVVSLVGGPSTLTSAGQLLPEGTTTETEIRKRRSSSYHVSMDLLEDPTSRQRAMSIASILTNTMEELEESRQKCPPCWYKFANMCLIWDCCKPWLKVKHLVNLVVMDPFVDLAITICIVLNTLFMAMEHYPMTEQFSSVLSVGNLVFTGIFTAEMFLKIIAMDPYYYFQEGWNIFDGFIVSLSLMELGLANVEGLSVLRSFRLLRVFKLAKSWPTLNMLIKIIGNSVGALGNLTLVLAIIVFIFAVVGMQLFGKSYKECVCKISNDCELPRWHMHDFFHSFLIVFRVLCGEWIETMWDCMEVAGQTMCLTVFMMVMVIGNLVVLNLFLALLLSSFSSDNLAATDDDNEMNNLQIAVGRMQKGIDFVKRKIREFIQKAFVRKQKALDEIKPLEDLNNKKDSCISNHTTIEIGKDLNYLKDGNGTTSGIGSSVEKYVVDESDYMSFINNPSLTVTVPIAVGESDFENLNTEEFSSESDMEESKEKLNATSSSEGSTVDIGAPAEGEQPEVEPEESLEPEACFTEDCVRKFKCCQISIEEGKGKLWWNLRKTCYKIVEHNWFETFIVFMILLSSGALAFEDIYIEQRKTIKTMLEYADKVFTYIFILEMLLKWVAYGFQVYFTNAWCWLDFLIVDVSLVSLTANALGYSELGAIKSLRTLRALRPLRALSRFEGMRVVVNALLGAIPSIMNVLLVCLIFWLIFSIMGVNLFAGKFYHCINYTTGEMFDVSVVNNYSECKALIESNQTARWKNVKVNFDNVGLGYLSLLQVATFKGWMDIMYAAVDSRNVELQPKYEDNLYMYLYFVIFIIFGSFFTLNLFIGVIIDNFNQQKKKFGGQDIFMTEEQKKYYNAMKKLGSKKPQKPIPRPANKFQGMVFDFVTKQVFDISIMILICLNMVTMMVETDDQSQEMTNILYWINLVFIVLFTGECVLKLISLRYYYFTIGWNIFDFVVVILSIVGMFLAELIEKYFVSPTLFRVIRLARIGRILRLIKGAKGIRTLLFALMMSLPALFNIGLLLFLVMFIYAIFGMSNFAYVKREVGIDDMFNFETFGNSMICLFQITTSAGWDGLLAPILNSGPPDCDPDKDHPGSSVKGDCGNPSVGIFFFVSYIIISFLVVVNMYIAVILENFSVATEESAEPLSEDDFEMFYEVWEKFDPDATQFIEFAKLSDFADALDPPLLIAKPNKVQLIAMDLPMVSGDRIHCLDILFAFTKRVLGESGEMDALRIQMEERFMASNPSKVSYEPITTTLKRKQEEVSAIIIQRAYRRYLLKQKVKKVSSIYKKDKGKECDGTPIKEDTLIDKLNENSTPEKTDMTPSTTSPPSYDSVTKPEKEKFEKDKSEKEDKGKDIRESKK

In the case of `N#Cc1ccccc1OC1CCN(CC2Cc3cccnc3C2)CC1` (stereo not shown) [Example 138, 2-((1-((6,7-dihydro-5H-cyclopenta[b]pyridin-6-yl)methyl)piperidin-4-yl)oxy) benzonitrile], the inhibition at 1 µM in assay [1] was determined as 10%. Besides, the IC50 in assay [2] amounted to 130 nM.
With `c1ccc(OC2CCN(CCO[C@H]3CCc4ccccc43)CC2)cc1` [Example 217, (S)-1-(2-((2,3-dihydro-1H-inden-1-yl)oxy)ethyl)-4-phenoxypiperidine], in assay [1], the inhibition at 1 µM stood at 58%. In assay [2], the IC50 came to 280 nM.
For `O[C@@H](CO[C@@H]1CCc2ccccc21)CN1CC[C@@H](Oc2ccc(F)cc2)C1` [Example 47, (R)-1-(((R)-2,3-dihydro-1H-inden-1-yl)oxy)-3-((R)-3-(4-fluorophenoxy)pyrrolidin-1-yl)propan-2-ol], the IC50 in assay [1] was found to be 360 nM; in assay [2], 100 nM.
`c1ccc2c(c1)CCC2CN1CCC2(CCc3cnccc3O2)CC1` (stereo not shown) [Example 404, 1-((2,3-dihydro-1H-inden-1-yl)methyl)-3′,4′-dihydrospiro[piperidine-4,2′-pyrano[3,2-c]pyridine]]: the inhibition at 1 µM in assay [1] was determined as 14%. In assay [2], the IC50 stood at 110 nM.
As for `Clc1cccc(N2CCN(Cn3c(COc4ccccc4)nc4ccccc43)CC2)c1` [Example 61, 1-((4-(3-chlorophenyl)piperazin-1-yl)methyl)-2-(phenoxymethyl)-1H-benzo[d]imidazole], the inhibition at 10 µM in assay [1] stood at 8%. Moreover, the IC50 in assay [2] amounted to 200 nM.
For `Fc1ccc(OC2CCCCN(CC3CCc4ccccc43)C2)cc1` (stereo not shown) [Example 275, 1-((2,3-dihydro-1H-inden-1-yl)methyl)-3-(4-fluorophenoxy)azepane], the inhibition at 1 µM in assay [1] is 2%. In assay [2], the IC50 turned out to be 400 nM.
Consider `Fc1ccc(O[C@H]2CCCN(CC3COCc4ccccc43)C2)cc1` (stereo partly drawn) [Example 261, (3S)-3-(4-fluorophenoxy)-1-(isochroman-4-ylmethyl)piperidine], for which the inhibition at 1 µM in assay [1] was determined as 22%. Besides, the IC50 in assay [2] came out at 350 nM.
On to `c1ccc(N2C[C@@H]3C[C@H]2CN3CC2CCc3ccccc32)cc1` (stereo partly drawn) [Example 303, (1S,4S)-2-((2,3-dihydro-1H-inden-1-yl)methyl)-5-phenyl-2,5-diazabicyclo[2.2.1]heptane], for which the IC50 turned out to be 1820 nM in assay [1] and 2600 nM in assay [2].
The like results for `c1ccc(O[C@H]2COC3(CCN(C[C@H]4CCc5ccccc54)CC3)C2)cc1` (single isomer, unassigned) [Compound 381] were, in that order, 290 nM and 20 nM.
The like results for `Cc1cccc(N2CCN(CC(O)COC3(C)COc4ccccc43)CC2)c1C` (stereo not shown) [Example 81, 1-(4-(2,3-dimethylphenyl)piperazin-1-yl)-3-((3-methyl-2,3-dihydrobenzofuran-3-yl)oxy)propan-2-ol] were, in that order, 160 nM and 30 nM.
Consider `O=C1c2ccccc2CCN1CCN1C[C@@H]2C[C@H]1CN2c1ccccc1` [Example 304, 2-(2-((1S,4S)-5-phenyl-2,5-diazabicyclo[2.2.1]heptan-2-yl)ethyl)-3,4-dihydroisoquinolin-1(2H)-one], for which the inhibition at 1 µM in assay [1] is 4%. The IC50 in assay [2] was found to be 7050 nM.
For `COc1ccc2c(c1)C(CN1CCC[C@@H](Oc3ccc(F)cc3)C1)CC2` (stereo partly drawn) [Example 255, (3R)-3-(4-fluorophenoxy)-1-((6-methoxy-2,3-dihydro-1H-inden-1-yl)methyl)piperidine], in that order: 14% and 360 nM.
With `OC(CO[C@@H]1CCc2ccccc21)CN1CC[C@H](Oc2ccc(F)cc2)C1` (stereo partly drawn) [Example 45, 1-(((R)-2,3-dihydro-1H-inden-1-yl)oxy)-3-((S)-3-(4-fluorophenoxy)pyrrolidin-1-yl)propan-2-ol], the inhibition at 10 µM in assay [1] came to 85%. Moreover, the IC50 in assay [2] was 610 nM.
In the case of `Fc1ccc(OC2CCN(CC3COCc4ccccc43)CC2)cc1` (stereo not shown) [Example 160, 4-(4-fluorophenoxy)-1-(isochroman-4-ylmethyl)piperidine], in assay [1], the inhibition at 1 µM was found to be 32%. The IC50 in assay [2] was found to be 130 nM.
As to `Fc1ccc(N2CCC3(CCN(CC4CCc5cccnc54)C3)C2)cc1` (stereo not shown) [Example 337, 2-((6,7-dihydro-5H-cyclopenta[b]pyridin-7-yl)methyl)-7-(4-fluorophenyl)-2,7-diazaspiro[4.4]nonane], the inhibition at 1 µM in assay [1] is -2%. The IC50 in assay [2] turned out to be 450 nM.
For the molecule `O=C1c2ccccc2CCN1CCN1CCC(Oc2ccccc2)CC1` [Example 191, 2-(2-(4-phenoxypiperidin-1-yl)ethyl)-3,4-dihydroisoquinolin-1(2H)-one], in assay [1], the inhibition at 1 µM turned out to be 18% and the inhibition at 10 µM was determined as 52%. Besides, in assay [2], the half-maximal inhibitory concentration (IC50) was 50 nM.
Turning to `Fc1ccc(OC2CCN(CC3Cc4ccncc4C3)CC2)cc1` (stereo not shown) [Example 158, 6-((4-(4-fluorophenoxy)piperidin-1-yl)methyl)-6,7-dihydro-5H-cyclopenta[c]pyridine], in assay [1], the inhibition at 1 µM is -15%. Besides, the IC50 in assay [2] worked out at 150 nM.
The like results for `CN1Cc2ccccc2C(CCN2CCC(Oc3ccc(F)cc3)CC2)C1` (stereo not shown) [Example 180, 4-(2-(4-(4-fluorophenoxy)piperidin-1-yl)ethyl)-2-methyl-1,2,3,4-tetrahydroisoquinoline] were, in that order, 8% and 320 nM.
Regarding `OC1(CN2CC[C@H](Oc3ccc(F)cc3)C2)COCc2ccccc21` (stereo partly drawn) [Example 10, 4-(((S)-3-(4-fluorophenoxy)pyrrolidin-1-yl)methyl)isochroman-4-ol], in assay [1], the inhibition at 1 µM was determined as 3%. The 50% inhibitory concentration (IC50) in assay [2] stood at 310 nM.
For the molecule `Fc1ccc(OC2CCN(CCC3CCc4ccccc43)CC2)cc1` (stereo not shown) [Example 171, 1-(2-(2,3-dihydro-1H-inden-1-yl)ethyl)-4-(4-fluorophenoxy)piperidine], the IC50 in assay [1] is 40 nM; in assay [2] it was 60 nM.
In the case of `O[C@H](CO[C@H]1CCCc2ccccc21)CN1CCN(Cc2ccccc2)CC1` [Example 87, (S)-1-(4-benzylpiperazin-1-yl)-3-(((S)-1,2,3,4-tetrahydronaphthalen-1-yl)oxy)propan-2-ol], in assay [1], the inhibition at 1 µM came out at 15%. The IC50 in assay [2] worked out at 3630 nM.
As for `COc1cccc(OC2CCN(CCCN3CCc4ccccc4C3=O)CC2)c1` [Example 221, 2-(3-(4-(3-methoxyphenoxy)piperidin-1-yl)propyl)-3,4-dihydroisoquinolin-1(2H)-one], the IC50 in assay [1] was found to be 1000 nM; in assay [2], 980 nM.
Take `Fc1ccc(OC2CCCN(CC3COc4ccccc43)CC2)cc1` (stereo not shown) [Example 272, 1-((2,3-dihydrobenzofuran-3-yl)methyl)-4-(4-fluorophenoxy)azepane]: the IC50 in assay [1] is 830 nM; in assay [2] it was 10 nM.
Turning to `CO[C@H](CCN1CCC(Oc2ccccc2)CC1)c1ccccc1` [Example 229, (R)-1-(3-methoxy-3-phenylpropyl)-4-phenoxypiperidine], the results for the IC50 in assay [1] and in assay [2] were 1080 nM and 30 nM, respectively.
For `OC(CO[C@@H]1CCc2ccccc21)CN1CCC(Oc2ccc(F)cc2)CC1` (stereo partly drawn) [Example 236, 1-(((R)-2,3-dihydro-1H-inden-1-yl)oxy)-3-(4-(4-fluorophenoxy)piperidin-1-yl)propan-2-ol], in that order: 550 nM and 350 nM.
With `O[C@@H](COc1ccccc1)CN1CCC2(CCc3ccccc3O2)CC1` [Example 441, (R)-1-phenoxy-3-(spiro[chromane-2,4′-piperidin]-1′-yl)propan-2-ol], in assay [1], the inhibition at 1 µM was found to be 17%. Besides, in assay [2], the IC50 came out at 30 nM.
For `Cc1cccc(N2CCN(CC(O)COC3COc4cccnc43)CC2)c1C` (stereo not shown) [Example 82, 1-((2,3-dihydrofuro[3,2-b]pyridin-3-yl)oxy)-3-(4-(2,3-dimethylphenyl)piperazin-1-yl)propan-2-ol], the IC50 in assay [1] is 1350 nM; in assay [2], 40 nM.
Regarding `N#Cc1ccc(OCCN2CCN(c3nsc4ccccc34)CC2)cc1` [Example 67, 4-(2-(4-(benzo[d]isothiazol-3-yl)piperazin-1-yl)ethoxy)benzomtnle], the inhibition at 10 µM in assay [1] is 85%. In assay [2], the IC50 turned out to be 10 nM.
For `O=C1c2ccccc2CCCN1CCCN1CCC(Oc2ccc(F)cc2)CC1` [Example 223, 2-(3-(4-(4-fluorophenoxy)piperidin-1-yl)propyl)-2,3,4,5-tetrahydro-1H-benzo[c]azepin-1-one], in that order: 68% and 30 nM.
Turning to `COc1ccccc1OC1CCN(CC2c3ccccc3OC2(C)C)CC1` (stereo not shown) [Example 129, 1-((2,2-dimethyl-2,3-dihydrobenzofuran-3-yl)methyl)-4-(2-methoxyphenoxy)piperidine], the IC50 in assay [1] turned out to be 1060 nM; in assay [2], 400 nM.
For the molecule `O=C1Cc2ccccc2N1CCCN1CCC(Oc2ccc(F)cc2)CC1` [Example 219, 1-(3-(4-(4-fluorophenoxy)piperidin-1-yl)propyl)indolin-2-one], the inhibition at 10 µM in assay [1] came to 54%. Also, in assay [2], the IC50 came out at 10 nM.
On to `c1ccc(O[C@@H]2COC3(CCN(C[C@H]4CCc5ccccc54)CC3)C2)cc1` (single isomer, unassigned) [Compound 384], for which the IC50 stood at 290 nM in assay [1] and 300 nM in assay [2].
Regarding `OC(CO[C@@H]1CCCc2ccccc21)CN1CC[C@@H](Oc2ccc(F)cc2)C1` (stereo partly drawn) [Example 50, 1-((R)-3-(4-fluorophenoxy)pyrrolidin-1-yl)-3-(((R)-1,2,3,4-tetrahydronaphthalen-1-yl)oxy)propan-2-ol], the IC50 was determined as 1290 nM in assay [1] and 60 nM in assay [2].
